# Experimental data: patent US20180171411A1, “GFRalpha1 AS A BIOMARKER FOR CISPLATIN-INDUCED CHEMORESISTANCE AND METASTASIS” (THE BOARD OF REGENTS OF THE UNIVERSITY OF TEXAS SYSTEM, priority 2015, published 2018)
# Peptide text beside a SMILES is read from it. * marks the point of attachment. Cbz = O=C(OCc1ccccc1)*; CH2F = FC*
# How the values were obtained:
# Type in all cases: cell-based, human
# [1] = test system: LC3-II in GFRα1-overexpressing MG-63 cells; assay: Immunoblot of LC3-II in GFRα1-overexpressing cells; settings: 3-MA (10 μM) or Baf (100 nM)
# Experimental: FIG. 3. GFRα1-induced autophagy enhances the chemoresistance of osteosarcoma cells induced by cisplatin. (a) Control and GFRα1-deficient MG-63 cells were transiently transfected with a mRFP-GFP tandem fluorescent-tagged LC3 (mRFP-GFP-LC3) vector and then treated with cisplatin (20μM) for 24 hr. Left, representative images of RFP-LC3 and GFP-LC3 puncta. Scale bar, 20 μm. Right, quantitative analysis of the number of yellow puncta and the number of RFP-LC3 puncta in the combined images. The values are represented as a mean±s.d.m. (n=3). ** denotes p<0.05 by t-test. (b) Control and GFRα1-deficient MG-63 cells were treated with cisplatin (20 μM) for 24 hr and then stained with acridine orange. […] Bottom, quantitative analysis of the number of AVOs. […] (c) Control and GFRα1-deficient MG-63 cells were treated with cisplatin (20 μM) for 24 hr and then analyzed by TEM. Top, representative images of autophagic vacuoles (yellow arrows) detected after cisplatin treatment in control MG-63 cells. […] Bottom, quantitative analysis of the number of autophagic vacuoles. […] (e) Quantitative analysis of the number of yellow puncta and the number of RFP-LC3 puncta in control and GFRα1-overexpressing MG-63 cells. […] Bottom, quantitative analysis of the number of AVOs. […] (h) Control and GFRα1-overexpressing MG-63 cells were treated with cisplatin (20 μM) for 24 hr and then analyzed by TEM. […]
# [2] = test system: GFRα1-overexpressing MG-63 cells; assay: WST-1 cell viability of GFRα1-overexpressing osteosarcoma cells; settings: with DMSO, 3-MA or Baf, then cisplatin 20 μM 24 hr
# Experimental: FIG. 3. GFRα1-induced autophagy enhances the chemoresistance of osteosarcoma cells induced by cisplatin. (a) Control and GFRα1-deficient MG-63 cells were transiently transfected with a mRFP-GFP tandem fluorescent-tagged LC3 (mRFP-GFP-LC3) vector and then treated with cisplatin (20μM) for 24 hr. Left, representative images of RFP-LC3 and GFP-LC3 puncta. Scale bar, 20 μm. Right, quantitative analysis of the number of yellow puncta and the number of RFP-LC3 puncta in the combined images. The values are represented as a mean±s.d.m. (n=3). ** denotes p<0.05 by t-test. (b) Control and GFRα1-deficient MG-63 cells were treated with cisplatin (20 μM) for 24 hr and then stained with acridine orange. Top, representative images of cells stained with acridine orange. Scale bar, 20 μm. Bottom, quantitative analysis of the number of AVOs. The values are represented as a mean±s.d.m. (n=3). ** denotes p<0.05 by t-test. (c) Control and GFRα1-deficient MG-63 cells were treated with cisplatin (20 μM) for 24 hr and then analyzed by TEM. Top, representative images of autophagic vacuoles (yellow arrows) detected after cisplatin treatment in control MG-63 cells. Scale bar, 100 nm. Bottom, quantitative analysis of the number of autophagic vacuoles. The values are represented as a mean±s.d.m. (n=3). ** denotes p<0.05 by t-test. (d) Immunoblot analysis of control and GFRα1-overexpressing osteosarcoma cell lysates with antibodies specific for GFRα1, LC3 and β-actin. […] (e) Quantitative analysis of the number of yellow puncta and the number of RFP-LC3 puncta in control and GFRα1-overexpressing MG-63 cells. […] Bottom, quantitative analysis of the number of AVOs. […] (h) Control and GFRα1-overexpressing MG-63 cells were treated with cisplatin (20 μM) for 24 hr and then analyzed by TEM. Top, representative images of autophagic vacuoles detected after cisplatin treatment in control and GFRα1-overexpressing MG-63 cells. […] Bottom, quantitative analysis of the number of autophagic vacuoles. […] Cell viability was measured using the WST-1 assay. […] Cell viability was measured using the WST-1 assay. […]
# [3] = test system: GFRα1-overexpressing MG-63 clone #4; assay: Colony-forming assay in the presence of cisplatin; settings: cisplatin 20 μM 10 days; 3-MA (10 μM), Baf (100 nM), CQ (30 μg/ml)
# Source text: FIG. 3. […] Scale bar, 20 μm. […] Scale bar, 20 μm. […] Scale bar, 20 μm.
# [4] = test system: Caspase-3 activity in control and GFRα1-deficient MG-63 cells; assay: Caspase-3 activity (Colorimetric CaspACE assay); settings: cisplatin 20 μM 24 hr, ZVAD-FMK 50 μM
# Source text: FIG. 2. GFRα1 suppresses the chemosensitivity of osteosarcoma cells induced by cisplatin. (a) Generation of GFRα1-deficient osteosarcoma cell lines with GFRα1 shRNA. Both MG-63 and U-2 OS cells were transfected with control or GFRα1 shRNA. Immunoblot analysis of control and GFRα1-deficient stable osteosarcoma cell lysates with antibodies specific for GFRα1 and β-actin. (b) Cell viability of GFRα1-deficient osteosarcoma cells after cisplatin treatment. Control or GFRα1-deficient cells were cultured and treated with different concentrations of cisplatin for 24 hr. Cell viability was measured using the WST-1 assay. The values are represented as a mean±s.d.m. (n=3). ** denotes p<0.05 by t-test. (c) Apoptotic response of GFRα1-deficient osteosarcoma cells after cisplatin treatment. […] Apoptotic cells by FITC-Annexin V staining (top) and viable cells by PI staining (bottom) were analyzed through flow cytometry. […] Cell viability was measured using the WST-1 assay. […] Apoptotic cells by FITC-Annexin V staining (top) and viable cells by PI staining (bottom) were analyzed through flow cytometry. […]
# Apoptosis Assays. […] Apoptotic cells were analyzed using a FACSCalibur flow cytometer with CellQuest software (Becton Dickinson, Franklin Lakes, N.J.). […] Caspase 3 activity was analyzed by the Colorimetric CaspACE™ Assay System (Promega, Madison, Wis.) according the manufacturer's instructions. […]
Compound,level of LC3-II expression [1],increase of cell proliferation in GFRα1 overexpressing cells [2],number of colonies [3],Caspase-3 activity increase in cisplatin-treated GFRα1-deficient MG-63 cells [4]
"CO/C1=C\C(C)=C\[C@@H](C)[C@@H](O)[C@@H](C)C/C(C)=C/C=C/[C@H](OC)[C@@H]([C@@H](C)[C@@H](O)[C@H](C)[C@@]2(O)C[C@@H](O)[C@H](C)[C@@H](C(C)C)O2)OC1=O [Baf, bafilomycin A1]",increased,not,effectively reduced,–
COC(=O)C[C@H](NC(=O)[C@H](C)NC(=O)[C@@H](NC(=O)OCc1ccccc1)C(C)C)C(=O)CF [ZVAD-FMK] (Cbz-Val-Ala-Asp(OMe)-CH2F),–,–,–,reversed this effect
